Laboratory results as given in US6479079B1, “Anticalcification treatments for fixed biomaterials” (Sulzer Carbomedics Inc., priority 1999, dated 2002).

Key:
[1] = tested on: glutaraldehyde-fixed bovine pericardium tissue; test: Calcium and phosphorus content after subcutaneous implantation in rats (Examples 2 and 3); assay type: in vivo, Sprague-Dawley rats; details: for Calcuim / Phosphorus: Bovine Pericardium, 60 days of implantation
Procedure: (§1) In a sterile hood, pieces of glutaraldehyde-fixed bovine pericardium tissue (Mitroflow Inc.; Richmond, British Columbia, Canada) porcine cusp tissue (Labcor; Belo Horizonte, Brazil) and porcine wall tissue (Labcor Inc.) were transferred into sterile tubes containing 1,2-octanediol solutions (5% […] (Aldrich Chemical), 40% ethanol and 55% 10 mM HEPES buffer). The tubes were transferred to a 37° C. incubator and maintained at 37° C. with gentle agitation for about 16 hours. After the treatment, the samples were transferred to solutions comprising 22% ethanol in 10 mM HEPES and stored for 14 days at 4° C. The final tissue to volume ratio for all treatments was approximately 27 ml/g.
(§2) For N-methyl pyrolidinone (NMP) treatments, pieces of glutaraldehyde-fixed bovine pericardium tissue (Mitroflow Inc.), porcine cusp tissue (Labcor Inc.) and porcine wall tissue (Labcor Inc.) were transferred into sterile tubes containing NMP. The tubes were incubated at room temperature for about 16 hours with occasional manual agitation. After the treatment, the tissue samples were transferred to 22% HEPES-buffered ethanol solutions and stored for 14 days at 4° C.
(§3) Samples treated with the 1,2-octanediol solutions and with NMP, as well as untreated samples of each tissue type, were provided to Charles Rivers Laboratories (Wilmington, Mass.) for implantation into rats. Seven rats per treatment group were analyzed. Prior to implantation, the tissue samples were rinsed for 3 minutes×3 in sterile PBS, accompanied by gentle agitation. The samples were implanted subcutaneously approximately 1 cm from the abdominal midline in 3 week old Sprague-Dawley rats and retrieved after 60 days of implantation. Unimplanted samples (one per tissue type per treatment) were used as unimplanted controls. After retrieval, the samples were analyzed for their calcium and phosphorus contents using a standard ICP methodology.
In a sterile hood, pieces of glutaraldehyde-fixed bovine pericardium tissue (Mitroflow Inc.) were transferred into sterile tubes containing a 45% solution of HEPES-buffered ethanol (45% ethanol, 55% 10 mM HEPES buffer). The tubes were transferred to a 37° C. incubator and maintained at 37° C. with gentle agitation for about 16 hours. After the treatment, the samples were transferred to fresh solution of 45% HEPES-buffered ethanol and stored for 14 days at room temperature (˜25° C.). The final tissue to volume ratio for all treatments was approximately 27 ml /g.
as §3, with “45% ethanol solution,” for “1,2-octanediol solutions and with NMP,”, “by ICP.” for “using a standard ICP methodology.”

porcine cusp tissue = test: Calcium and phosphorus content after subcutaneous implantation in rats (Example 2); assay type: in vivo, Sprague-Dawley rats; details: 60 days of implantation
Procedure: as §1, §2, §3

porcine wall tissue = test: as above; assay type: in vivo, Sprague-Dawley rats; details: 60 days of implantation
Procedure: as §1, §2, §3

[2] = tested on: glutaraldehyde fixed bovine pericardium; test: Calcification after subcutaneous implantation in rats (Example 1); assay type: in vivo, Sprague-Dawley rats; details: alcohol treatment 24 hrs, retrieved after 60 days
Procedure: Bovine pericardium was obtained fresh from the abattoir, trimmed to remove excess fat, and stored in a high osmolarity solution until use. Prior to fixation, the tissue was rinsed thoroughly in phosphate buffered saline (PBS) having a pH of 7.3-7.4. A 0.25% solution of glutaraldehyde was prepared by adding 2.5 ml of a 50% glutaraldehyde solution (Aldrich Chemical) to 500 ml using PBS. Fifteen 1 cm×1 cm samples of bovine pericardium tissue were added to the glutaraldehyde solution and the tube was stored at room temperature for 7 days.
In a sterile hood, glutaraldehyde fixed bovine pericardium pieces were washed with sterile PBS (3 washes, 10 minutes each). The samples were then immersed in a sterile filtered solution of 40% ethanol, 5% octanol, 55% water and treated for 24 hours at room temperature. The tissue was then washed with sterile PBS (3 washes, 10 minutes each), and in sterile filtered 45% ethanol in PBS for about 30 minutes. […]
The calcium content of the retrieved samples was determined by hydrolyzing the samples under acidic conditions and analyzing the digested samples using standard inductively coupled plasma (ICP) emission spectrophotometry. […] The resulting digested sample was diluted with water and analyzed using an ICP spectrophotometer (Varian Inc.; Liberty 100/200 ICP-OCS).

[3] = Shrinkage temperature by differential scanning calorimetric analysis; assay type: physicochemical, bovine
Procedure: The samples were then analyzed to evaluate the presence of extractable proteins and to determine shrinkage temperatures.
The shrinkage temperatures of the treated tissues were also determined using standard differential scanning calorimetric analysis. Typically, 2-10 mg of tissue was heated at the rate of 10° C. per minute under nitrogen atmosphere. The onset of the endotherm observed at about 60-90° C. is conventionally attributed to a shrinkage transition, and was used as the shrinkage temperature. An increase in the shrinkage temperature is an indication that cross-linking has occurred.
For these experiments, bovine pericardium samples were placed in 0.25% solutions of glutaraldehyde in PBS where they remained at room temperature for about 7 days. The cross-linked tissues were then subjected to either 1,2-octanediol or NMP treatments, as described above. The treated samples were then analyzed for extractable proteins and to determine shrinkage temperatures.

[4] = treated at 37° C. about 16 hours (Example 3)

SMILES | Calcuim [1] [μg/mg tissue] | Phosphorus [1] [μg/mg tissue] | Calcuim (porcine cusp tissue) [μg/mg tissue] | Phosphorus (porcine cusp tissue) [μg/mg tissue] | Calcuim (porcine wall tissue) [μg/mg tissue] | Phosphorus (porcine wall tissue) [μg/mg tissue] | Calcuim [1, 4] [μg/mg tissue] | Phosphorus [1, 4] [μg/mg tissue] | calcium and phosphorus levels compared with no anticalcification treatment ([1]; Example 3) | Calcium ([2]; glutaraldehyde 0.25%, 14 days (45% EtOH) or 7 days (octanol), ICP) [μg/mg dry tissue] | Average von Kossa Grading ([2]; graded from 0 (none) to 5 (severe)) | calcium and phosphorus levels of explanted tissues ([1]; all tissue types, most pronounced with bovine pericardium) | effect on shrinkage temperature compared with untreated tissue [3] | Shrink Temperature ([3]; glutaraldehyde 0.25% about 7 days, then post-fixation treatment) [°C]
CCCCCCC(O)CO (centres unmarked) [1,2-octanediol] | 3.4 | 0 | 44.1 | 21.9 | 106.4 | 53.0 | – | – | – | – | – | – | – | –
CCO [45% EtOH, ethanol] | – | – | – | – | – | – | 3.4 | 0.0 | significant reduction | 168 | 5 | – | – | –
CN1CCCC1=O [NMP, N-methyl pyrolidinone] | 8.0 | 3.4 | 14.7 | 7.9 | 111.9 | 55.2 | – | – | – | – | – | significantly reduced | no significant effect | 85.6
